In paper PMC12406652 (Antimicrobial Agents and Chemotherapy, 2025):
Marks after values point to notes of the source that are not given here.

Columns and labels:
[1] = Plasma pharmacokinetics after single ascending doses of LED-E (VNRX-7145-101 Part 1); type: in vivo; settings: human, oral; for AUC(0-inf) / Cmax / half-life: geometric mean (CV %); for half-life: read-out: t1/2 (converted); for Tmax: median (range)
Protocol: (§1) Quantitation used separate weighted 1 /x^2 linear least-squares regression analyses generated from calibration standards. Exploratory screening for metabolites was performed for some samples. […] Single-dose plasma pharmacokinetic parameters were determined in Part 1, and both single-dose (Day 1) and multiple-dose (Day 12) parameters were determined in Part 2. […] Dose proportionality was analyzed using a power model in which pharmacokinetic exposure parameters and dose were converted to the natural log and linear regression results were reported, with the slope as the power estimate ([15]). […] In Part 2, achievement of steady-state concentrations was assessed using Tukey’s multiple comparison test for pre-dose and all dosing days (Days 2 to 10) for each dose level separately. In both studies, plasma pharmacokinetic parameters were calculated using WinNonlin (Certara; Radnor, PA), and urine pharmacokinetic parameters were calculated using SAS (SAS Institute; Cary, NC).

[2] = Plasma pharmacokinetics on Day 10 after multiple doses of LED-E q8h (VNRX-7145-101 Part 2, VNRX-7145-102 Part 2); type: in vivo, human; settings: for AUC / Cmax / Tmax / half-life: human, oral, plasma; for Tmax: median (range)
Protocol: as §1, with “Single-dose plasma pharmacokinetic parameters were determined in Part 1, and both single-dose (Day 1) and multiple-dose (Day 12) parameters were determined in Part 2.” left out, “separately. […] Plasma pharmacokinetic parameters were calculated using noncompartmental analysis of the plasma and urine concentration-time data. […] AUCinf and Cmax were natural log-transformed before analysis, using a linear mixed effects model. […]” for “separately.”

[3] = Urinary pharmacokinetics after single doses of LED-E; type: in vivo, human; settings: urine, geometric mean (geometric CV %); for CL renal: human, oral
Protocol: Plasma and urine pharmacokinetics samples were assayed for LED-E, LED, and CTB, as appropriate using validated bioanalytical methods. […] Quantitation used separate weighted 1 /x^2 linear least-squares regression analyses generated from calibration standards. Exploratory screening for metabolites was performed for some samples. In both studies, plasma pharmacokinetic parameters were calculated using WinNonlin (Certara; Radnor, PA), and urine pharmacokinetic parameters were calculated using SAS (SAS Institute; Cary, NC).

[4] = Urinary pharmacokinetics on Day 10 after multiple doses of LED-E q8h; type: in vivo, human; settings: urine; for CL renal: oral; for CL renal / Ae0–8 / Ae0–48: geometric mean (geometric CV %); for Ae0–8 / Ae0–48: after last dose (Day 10)
Protocol: Quantitation used separate weighted 1 /x^2 linear least-squares regression analyses generated from calibration standards. Exploratory screening for metabolites was performed for some samples. […] Plasma pharmacokinetic parameters were calculated using noncompartmental analysis of the plasma and urine concentration-time data. […] AUCinf and Cmax were natural log-transformed before analysis, using a linear mixed effects model. […] In both studies, plasma pharmacokinetic parameters were calculated using WinNonlin (Certara; Radnor, PA), and urine pharmacokinetic parameters were calculated using SAS (SAS Institute; Cary, NC).

[5] = Urinary recovery on Day 10 after multiple doses of CTB + LED-E q8h (VNRX-7145-102 Part 3); settings: urine, geometric mean (geometric CV %); for CL renal: human, oral, CLr
[6] = Plasma pharmacokinetics on Day 10 after multiple doses of CTB + LED-E q8h (VNRX-7145-102 Part 3); settings: human, oral; for AUC: AUCtau; for AUC / Cmax / half-life: geometric mean (CV %)
[7] = 1000 mg, single dose LED-E 1,000 mg
[8] = Day 10, LED-E 150 mg q8h, geometric mean (CV %)
[9] = Day 10, LED-E 300 mg q8h, geometric mean (CV %)
[10] = Day 10, LED-E 500 mg q8h, geometric mean (CV %)
[11] = multiple doses LED-E 150 mg q8h
[12] = multiple doses LED-E 300 mg q8h
[13] = multiple doses LED-E 500 mg q8h
[14] = Day 10, CTB 400 mg + LED-E 300 mg q8h
[15] = Day 10, CTB 400 mg + LED-E 500 mg q8h

CCC(=O)N[C@H]1Cc2cccc(C(=O)O)c2OB1O [Ledaborbactam, ledaborbactam]
AUC(0-inf) [1, 7]: 114000 ng·h/mL | Cmax [1, 7]: 26500 ng/mL | half-life [1, 7]: 11.3 h | Tmax [1, 7]: 2 h | AUC(0-inf) ([1]; single dose LED-E 100 mg): 15400 ng·h/mL | Cmax ([1]; single dose LED-E 100 mg): 4010 ng/mL | half-life ([1]; single dose LED-E 100 mg): 5.53 h | AUC(0-inf) ([1]; single dose LED-E 200 mg): 26200 ng·h/mL | Cmax ([1]; single dose LED-E 200 mg): 5970 ng/mL | half-life ([1]; single dose LED-E 200 mg): 6.1 h | AUC(0-inf) ([1]; single dose LED-E 300 mg): 33100 ng·h/mL | Cmax ([1]; single dose LED-E 300 mg): 7570 ng/mL | half-life ([1]; single dose LED-E 300 mg): 7.48 h | AUC(0-inf) ([1]; single dose LED-E 500 mg): 69300 ng·h/mL | Cmax ([1]; single dose LED-E 500 mg): 16800 ng/mL | half-life ([1]; single dose LED-E 500 mg): 11.3 h | AUC(0-inf) ([1]; single dose LED-E 800 mg): 125000 ng·h/mL | Cmax ([1]; single dose LED-E 800 mg): 24000 ng/mL | half-life ([1]; single dose LED-E 800 mg): 8.59 h | Tmax ([1]; single dose LED-E 800 mg): 2 h | Steady-state plasma concentrations reached by ([2]; LED-E q8h dosing): ≤ 3 days | AUC ([2]; Day 10, LED-E 75 mg q8h, 0 to 8 h post-dose, geometric mean (CV %)): 13900 ng·h/mL | Cmax ([2]; Day 10, LED-E 75 mg q8h, geometric mean (CV %)): 3690 ng/mL | Tmax ([2]; Day 10, LED-E 75 mg q8h): 1 h | AUC [2, 8]: 20800 ng·h/mL | Cmax [2, 8]: 5870 ng/mL | Tmax ([2]; Day 10, LED-E 150 mg q8h): 0.75 h | AUC [2, 9]: 40900 ng·h/mL | Cmax [2, 9]: 11600 ng/mL | Tmax ([2]; Day 10, LED-E 300 mg q8h): 1.13 h | AUC [2, 10]: 70000 ng·h/mL | Cmax [2, 10]: 15800 ng/mL | half-life ([2]; 75 mg, Day 10, LED-E 75 mg q8h, geometric mean (CV %), read-out: t1/2 (converted)): 9.3 h | half-life ([2]; 150 mg, Day 10, LED-E 150 mg q8h, geometric mean (CV %), read-out: t1/2 (converted)): 11.4 h | half-life ([2]; 300 mg, Day 10, LED-E 300 mg q8h, geometric mean (CV %), read-out: t1/2 (converted)): 11.3 h | half-life ([2]; 500 mg, Day 10, LED-E 500 mg q8h, geometric mean (CV %), read-out: t1/2 (converted)): 12.5 h | half-life ([2]; Day 10, after 10 days of q8h dosing, across dose groups, read-out: Terminal half-life (t1/2) in plasma): 11 to 12 h | CL renal ([3]; single dose LED-E 300 mg): 66.3 mL/min | CL renal ([3]; single dose LED-E 500 mg): 53.3 mL/min | CL renal ([3]; single dose LED-E 800 mg): 58.7 mL/min | CL renal ([3]; single dose LED-E 1000 mg): 75.5 mL/min | Ae0–8 ([3]; single dose LED-E 300 mg): 113 (23.3) mg | Ae0–48 ([3]; single dose LED-E 300 mg): 131 (20.3) mg | Ae0–8 ([3]; single dose LED-E 500 mg): 190 (14.1) mg | Ae0–48 ([3]; single dose LED-E 500 mg): 220 (12.2) mg | Ae0–8 ([3]; single dose LED-E 800 mg): 364 (6.14) mg | Ae0–48 ([3]; single dose LED-E 800 mg): 438 (3.3) mg | Ae0–8 ([3]; single dose LED-E 1000 mg): 459 (16.6) mg | Ae0–48 ([3]; single dose LED-E 1000 mg): 515 (16.9) mg | CL renal ([4]; human, multiple doses LED-E 75 mg q8h): 44.2 mL/min | CL renal ([4]; human, multiple doses LED-E 150 mg q8h): 51.8 mL/min | CL renal ([4]; human, multiple doses LED-E 300 mg q8h): 51.5 mL/min | CL renal ([4]; human, multiple doses LED-E 500 mg q8h): 82 mL/min | bioavailability ([4]; human, after oral dosing of LED-E, inferred from urinary excretion): ≥ 68% | Ae0–8 ([4]; multiple doses LED-E 75 mg q8h): 43.1 (6.95) mg | Ae0–48 ([4]; multiple doses LED-E 75 mg q8h): 51.6 (7.80) mg | Ae0–48 ([4]; multiple doses LED-E 75 mg q8h, listed as LED): 51.6 mg | Ae0–8 [4, 11]: 73.1 (10.0) mg | Ae0–48 [4, 11]: 86.6 (11.1) mg | Ae0–8 [4, 12]: 137 (34.2) mg | Ae0–48 [4, 12]: 166 (27.8) mg | Ae0–8 [4, 13]: 283 (7.8) mg | Ae0–48 [4, 13]: 345 (11.2) mg | Ae0–48 ([4]; multiple doses LED-E 500 mg q8h, listed as LED): 345 mg | Ae0–8 [5, 14]: 156 (11.3) mg | Ae0–8 [5, 15]: 243 (22.8)^d mg | CL renal [5, 14]: 85.8 mL/min | CL renal [5, 15]: 74.8 mL/min | AUC [6, 14]: 33300 ng·h/mL | AUC [6, 15]: 62200 ng·h/mL | Cmax [6, 14]: 8470 ng/mL | Cmax [6, 15]: 16200 ng/mL | Tmax ([6]; Tmax, Day 10, CTB 400 mg + LED-E 300 mg q8h, median (range)): 1 h | half-life ([6]; t1/2, Day 10, CTB 400 mg + LED-E 300 mg q8h): 11.4 h | half-life ([6]; t1/2, Day 10, CTB 400 mg + LED-E 500 mg q8h): 12.3 h
